Reference: patent publication US20230037905A1 (Vyne Therapeutics Inc., priority 2019, published 2023)
Structures can show the parent of a compound that is named as a salt.

Experiments:
[1] = tested on: Reconstructed Human Epidermis (RHE) tissues exposed to Th2 cytokines IL-4, IL-13, IL-25; experiment: Reconstructed Human Epidermis (RHE) Th2 AD model (StratiCELL); format: cell-based; details: 48 h
Method: Reconstructed Human Epidermis (RHE) tissues are produced and grown by StratiCELL. To generate the morphological and functional aspects of AD, RHE samples are exposed to Th2 cytokines IL-4, IL-13, IL-25. Th-2 cytokines are applied for 48 h in the culture medium of epidermis. Test formulations are applied simultaneously with the cytokines on the stratum corneum of the epidermis during the same 48 h. The tissue morphology is assessed by histology and hemalum/eosin (H/E) staining—quantification of a fluorescent dye (biotin) diffusion through the epidermis in order to evaluate the barrier function.

[2] = Chemical stability of formulations (HPLC); format: physicochemical
Method: Where another active agent such as fingolimod is present in the formulations the samples are analysed for that active agent and its degradation products by HPLC. […] The gradient elution is employed.

[3] = Stability of Tofacitinib Citrate solution in 50 mM citrate buffer of different pH at 60° C.; format: physicochemical; design: unit not given here
[4] = as above; format: physicochemical; design: unit not given here; remark: listed apart in the source
From the text: In one or more embodiments the pH, is about 4, about 4.1, about 4.2, about 4.3, about 4.4, about 4.5, about 4.6, about 4.7, about 4.8, about 4.9 or about 5.

[5] = Compatibility test of tofacitinib citrate with excipients at 60° C.; format: physicochemical; design: TOF assay: unit not given here; details: 10 weeks at 60° C.
Method: The mixtures are tightly closed and exposed to 60° C. protected from light.

[6] = Solubility test (saturated solutions, HPLC); format: physicochemical
Method: An additional analysis is performed after 48 hours of agitation to confirm the determined saturated concentration.

in vivo = experiment: in vivo; design: species or system Minipigs; details: minipig, Tofacitinib concentration
Method: Minipigs are treated topically on 10% body surface area, once daily for 14 days with the tested formulation.

[7] = target: S1P receptors (S1P1 and S1P3-5); details: four of the five S1P receptors (S1P1 and S1P3-5); read-out: affinity; cited from earlier work
[8] = in Water + Carboxymethylcellulose
[9] = in Water + Glyceryl Monosteatate

CCCCCCCCc1ccc(CCC(N)(CO)CO)cc1 [Fingolimod, 2-amino-2-[2-(4-octylphenyl)ethyl]propane-1,3-diol]
barrier function (biotin immunofluorescence) ([1]; 0.001% w/w): reduced the Th2-induced barrier alteration
tissue morphology (histology, H/E staining) ([1]; 0.001% w/w): reduced the Th2-induced barrier alteration
barrier function (biotin immunofluorescence) ([1]; 0.01% w/w): reduced the Th2-induced barrier alteration
tissue morphology (histology, H/E staining) ([1]; 0.01% w/w): reduced the Th2-induced barrier alteration
tissue morphology (histology, H/E staining) ([1]; 0.1% w/w): increased fragilization was observed with junction/adhesion loss and disorganization of cell layers
barrier function (biotin immunofluorescence) ([1]; 0.1%): Increased barrier alteration
tissue morphology (histology, H/E staining) ([1]; 1% w/w): increased fragilization was observed with junction/adhesion loss and disorganization of cell layers
barrier function (biotin immunofluorescence) ([1]; 1%): Increased barrier alteration

CCCCCCCCc1ccc(CCC(N)(CO)CO)cc1 [fingolimod hydrochloride, Fingolimod hydrochloride]
chemical stability of active agent in formulation [2]: stable at 5° C., 40 °C and 50 °C

C[C@@H]1CCN(C(=O)CC#N)C[C@@H]1N(C)c1ncnc2[nH]ccc12 [Tofacitinib citrate]
RRT 0.48 (impurity) ([3]; pH 3, 1 w): 0.10
RRT 0.89 (impurity) ([3]; pH 3, 1 w): 0.10
TOF assay ([3]; pH 3, 1 w): 93.92
RRT 0.40 (impurity) ([3]; pH 3, 2 w): 0.09
RRT 0.48 (impurity) ([3]; pH 3, 2 w): 0.11
RRT 0.89 (impurity) ([3]; pH 3, 2 w): 0.09
RRT 1.42 (impurity) ([3]; pH 3, 2 w): 0.09
TOF assay ([3]; pH 3, 2 w): 100.09
Imp B ([3]; pH 4, 1 w): 0.09
TOF assay ([3]; pH 4, 1 w): 102.57
RRT 1.42 (impurity) ([3]; pH 5, 1 w): 0.14
RRT 0.80 (impurity) ([3]; pH 5, 2 w): 0.08
TOF assay ([3]; pH 6, 1 w): 99.67
RRT 0.89 (impurity) ([3]; pH 6, 2 w): 0.09
TOF assay ([3]; pH 6, 2 w): 100.09
TOF assay ([4]; pH 4, 2 w): 106.31
TOF assay ([4]; pH 4.5, 1 w): 108.64
TOF assay ([4]; pH 4.5, 2 w): 99.84
RRT 1.42 (impurity) ([4]; pH 5, 2 w): 0.14
TOF assay ([4]; pH 5, 2 w): 101.02
Deg. products ([5]; in MCT oil): 0.09
TOF assay ([5]; in MCT oil): 108.4
Deg. products [5, 8]: 9.33
TOF assay [5, 8]: 48.1
Deg. products ([5]; in Water + Ceteareth 20): 4.57
TOF assay ([5]; in Water + Ceteareth 20): 67.7
Deg. products ([5]; in Water + Glycerin): 10.16
TOF assay ([5]; in Water + Glycerin): 63.9
Deg. products [5, 9]: 2.62
TOF assay [5, 9]: 75.6
Deg. products ([5]; in Water + Hypermellose K100M): 4.64
TOF assay ([5]; in Water + Hypermellose K100M): 14.2
Deg. products ([5]; in Water + Methyl Paraben): 4.14
TOF assay ([5]; in Water + Methyl Paraben): 81.6
Deg. products ([5]; in Water + Propyl Paraben): 3.01
TOF assay ([5]; in Water + Propyl Paraben): 93.0
Deg. products ([5]; in Water + Stearic Acid): 3.64
TOF assay ([5]; in Water + Stearic Acid): 79.4
Deg. products ([5]; in Water + Stearyl Alcohol): 2.21
TOF assay ([5]; in Water + Stearyl Alcohol): 73.1
Deg. products ([5]; in Water + Xanthan Gum): 28.23
TOF assay ([5]; in Water + Xanthan Gum): 7.7
Deg. products ([5]; in Water): 1.90
TOF assay ([5]; in Water): 106.7
Solubility of TOF Citrate ([6]; in 0.02% HCl): 4.06 mg/g
Solubility of TOF Citrate ([6]; in 0.05% NaOH (degraded)): not detected
Solubility of TOF Citrate ([6]; in Benzyl Alcohol): 0.81 mg/g
Solubility of TOF Citrate ([6]; in DMSO): >150 mg/g
solubilized tofacitinib citrate concentration ([6]; in DMSO): > 15%
Solubility of TOF Citrate ([6]; in Diisopropyl adipate): 0.02 mg/g
Solubility of TOF Citrate ([6]; in Dimethyl isosorbate): 1.27 mg/g
Solubility of TOF Citrate ([6]; in Ethanol): 0.61 mg/g
Solubility of TOF Citrate ([6]; in Glycerin): 0.97 mg/g
Solubility of TOF Citrate ([6]; in Hexylene Glycol): 0.25 mg/g
Solubility of TOF Citrate ([6]; in Isopropyl Alcohol): 0.24 mg/g
Solubility of TOF Citrate ([6]; in Isopropyl myristate): <0.02 mg/g
Solubility of TOF Citrate ([6]; in MCT oil (Caprylic/capric triglycerides)): <0.01 mg/g
Solubility of TOF Citrate ([6]; in Oleyl alcohol): 0.09 mg/g
Solubility of TOF Citrate ([6]; in PPG-11 Stearyl ether): 0.02 mg/g
Solubility of TOF Citrate ([6]; in Propylene Glycol): 1.70 mg/g
Solubility of TOF Citrate ([6]; in Transcutol): 2.01 mg/g
Solubility of TOF Citrate ([6]; in Water): 2.77 mg/g
Solubility of TOF Citrate ([6]; in polyethylene glycol 200): 5.16 mg/g
solubilized tofacitinib citrate concentration ([6]; in polyethylene glycol 200): about 0.5%
Solubility of TOF Citrate ([6]; in polyethylene glycol 400): 6.96 mg/g
solubilized tofacitinib citrate concentration ([6]; in polyethylene glycol 400): about 0.7%

C[C@@H]1CCN(C(=O)CC#N)C[C@@H]1N(C)c1ncnc2[nH]ccc12 [Tofacitinib]
concentration at 4 h (in vivo): 1.48 ng/mL
concentration at 8 h (in vivo): 1.32 ng/mL
concentration at 24 h (in vivo): 0.688 ng/mL

CCCCCCCCc1ccc(CC[C@](N)(CO)COP(=O)(O)O)cc1 [fingolimod-phosphate]
Kd [7]: 0.3 to 3.1 nM
